Experimental data reported in PubChem BioAssay AID292 (DTP/NCI, 2004).
Several values for one entry are separate records, joined by “and”; a condition that tells them apart may be missing. Identical values can stand only once. Toxic doses and inconclusive results are not listed.

Tested on: B6C3F1 mice, ip Sarcoma M5076, median survival T/C
Experiment: NCI In Vivo Anticancer Drug Screen. Data for tumor model Sarcoma M5076 (intraperitoneal) in B6C3F1 mice
Details: endpoint: median survival time, higher = longer survival
Summary of the method: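 Transplantable tumour in mice; compound-treated vs vehicle-treated groups. Read-out: survival. Value = treated/control ratio.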

[1] = dose: 6.25 mg/kg/injection, schedule: Q04DX004 (ip), vehicle: suspension in saline
[2] = dose: 12.5 mg/kg/injection, schedule: Q04DX004 (ip), vehicle: suspension in saline
[3] = dose: 25.0 mg/kg/injection, schedule: Q04DX004 (ip), vehicle: suspension in saline
[4] = dose: 25.0 mg/kg/injection, schedule: Q04DX004 (ip), vehicle: saline
[5] = dose: 50.0 mg/kg/injection, schedule: Q04DX004 (ip), vehicle: saline
[6] = dose: 100.0 mg/kg/injection, schedule: Q04DX004 (ip), vehicle: saline
[7] = dose: 200.0 mg/kg/injection, schedule: Q04DX004 (ip), vehicle: saline
[8] = dose: 25.0 mg/kg/injection, schedule: Q04DX004 (ip), vehicle: saline with Tween-80
[9] = dose: 50.0 mg/kg/injection, schedule: Q04DX004 (ip), vehicle: saline with Tween-80
[10] = dose: 100.0 mg/kg/injection, schedule: Q04DX004 (ip), vehicle: saline with Tween-80
[11] = dose: 25.0 mg/kg/injection, schedule: Q04DX004 (ip), vehicle: Klucel (hydroxypropylcellulose) (HPC)
[12] = dose: 50.0 mg/kg/injection, schedule: Q04DX004 (ip), vehicle: Klucel (hydroxypropylcellulose) (HPC)
[13] = dose: 100.0 mg/kg/injection, schedule: Q04DX004 (ip), vehicle: Klucel (hydroxypropylcellulose) (HPC)
[14] = dose: 200.0 mg/kg/injection, schedule: Q04DX004 (ip), vehicle: Klucel (hydroxypropylcellulose) (HPC)
[15] = dose: 1.5 mg/kg/injection, schedule: Q04DX004 (ip), vehicle: saline with Tween-80
[16] = dose: 3.0 mg/kg/injection, schedule: Q04DX004 (ip), vehicle: saline with Tween-80
[17] = dose: 200.0 mg/kg/injection, schedule: Q04DX004 (ip), vehicle: saline with Tween-80
[18] = dose: 400.0 mg/kg/injection, schedule: Q04DX004 (ip), vehicle: saline with Tween-80

Structure (SMILES): O=c1c(O)c(O)c1=O.[NH2-].[NH2-].[NH2-].[NH2-].[NH2-].[Ru+5]
- T/C [1]: 98 % of control
- T/C [2]: 97 % of control
- T/C [3]: 98 % of control

Structure (SMILES): CN(C)CCC(=O)C(=Cc1ccc(O)cc1)C(=O)CCN(C)C
- T/C [4]: 103 % of control
- T/C [5]: 100 % of control
- T/C [6]: 104 % of control
- T/C [7]: 100 % of control

Structure (SMILES): c1ccc(P(CCNCCP(c2ccccc2)c2ccccc2)c2ccccc2)cc1
- T/C [8]: 88 % of control
- T/C [9]: 92 % of control
- T/C [10]: 90 % of control

Structure (SMILES): CC1=CCCC2C1(C)CCC(C)C2(C)Cc1cc(O)ccc1O (stereo not given)
- T/C (dose: 6.25 mg/kg/injection, schedule: Q04DX004 (ip), vehicle: Klucel (hydroxypropylcellulose) (HPC)): 103 % of control
- T/C (dose: 12.5 mg/kg/injection, schedule: Q04DX004 (ip), vehicle: Klucel (hydroxypropylcellulose) (HPC)): 99 % of control
- T/C [11]: 101 % of control
- T/C [12]: 99 % of control
- T/C [13]: 102 % of control

Structure (SMILES): COC(=O)NC1C(C)OC(OC2C/C=C(/C)C3C=CC4C(OC5CC(OC6CC(O)C(OC7CC(O)C(OC)C(C)O7)C(C)O6)C(O)C(C)O5)C(C)CC(C)C4C3(C)/C(O)=C3\C(=O)OC4(CC(C)C(CO)=CC4/C=C\2C)C3=O)CC1(C)[N+](=O)[O-] (stereo not given)
- T/C [11]: 105 % of control
- T/C [12]: 100 % of control
- T/C [13]: 87 % of control
- T/C [14]: 100 % of control

Structure (SMILES): c1ccc2[nH]c(CN(CCN(Cc3nc4ccccc4[nH]3)Cc3nc4ccccc4[nH]3)Cc3nc4ccccc4[nH]3)nc2c1
- T/C (dose: 3.12 mg/kg/injection, schedule: Q04DX004 (ip), vehicle: other): 103 % of control
- T/C (dose: 6.25 mg/kg/injection, schedule: Q04DX004 (ip), vehicle: other): 108 % of control
- T/C (dose: 12.5 mg/kg/injection, schedule: Q04DX004 (ip), vehicle: other): 100 % of control

Structure (SMILES): Cc1ccccc1C1C(C#N)C(=O)NC(=O)C1C#N (stereo not given)
- T/C [12]: 102 % of control
- T/C [13]: 105 % of control
- T/C [14]: 102 % of control
- T/C (dose: 400.0 mg/kg/injection, schedule: Q04DX004 (ip), vehicle: Klucel (hydroxypropylcellulose) (HPC)): 98 % of control

Structure (SMILES): COc1cc([C@@H]2c3cc4c(c(O)c3C[C@H]3COC(=O)[C@@H]32)OCO4)cc(OC)c1OC
- T/C (dose: 4.8 mg/kg/injection, schedule: Q04DX004 (ip), vehicle: suspension in saline): 159 % of control
- T/C (dose: 8.0 mg/kg/injection, schedule: Q04DX004 (ip), vehicle: suspension in saline): 163 % of control
- T/C (dose: 13.3 mg/kg/injection, schedule: Q04DX004 (ip), vehicle: suspension in saline): 155 % of control

Structure (SMILES): CN=NN(C)C(=O)NC
- T/C [4]: 158 % of control
- T/C (dose: 30.0 mg/kg/injection, schedule: Q04DX004 (ip), vehicle: saline): 160 % of control
- T/C [5]: 151 % of control and 152 % of control and 177 % of control
- T/C (dose: 83.0 mg/kg/injection, schedule: Q04DX004 (ip), vehicle: saline): 160 % of control and 162 % of control

Structure (SMILES): O=C1N[C@@H]2C(=C[C@H](O)[C@@H](O)[C@H]2O)c2cc3c(c(O)c21)OCO3
- T/C (dose: 0.38 mg/kg/injection, schedule: Q01DX009 (ip), vehicle: saline with Tween-80): 111 % of control
- T/C (dose: 0.38 mg/kg/injection, schedule: Q04DX004 (ip), vehicle: saline with Tween-80): 91 % of control
- T/C (dose: 0.75 mg/kg/injection, schedule: Q04DX004 (ip), vehicle: saline with Tween-80): 102 % of control and 110 % of control
- T/C (dose: 1.5 mg/kg/injection, schedule: Q01DX009 (ip), vehicle: saline with Tween-80): 123 % of control
- T/C [15]: 96 % of control and 119 % of control
- T/C [16]: 107 % of control

Structure (SMILES): Nc1nncs1
- T/C [10]: 111 % of control
- T/C (dose: 100.0 mg/kg/injection, schedule: Q04DX005 (ip), vehicle: saline with Tween-80): 112 % of control
- T/C (dose: 100.0 mg/kg/injection, schedule: Q04DX005 (ip), vehicle: saline): 114 % of control and 116 % of control
- T/C [17]: 112 % of control
- T/C (dose: 200.0 mg/kg/injection, schedule: Q04DX005 (ip), vehicle: saline with Tween-80): 112 % of control
- T/C (dose: 200.0 mg/kg/injection, schedule: Q04DX005 (ip), vehicle: saline): 109 % of control and 121 % of control
- T/C [18]: 121 % of control
- T/C (dose: 400.0 mg/kg/injection, schedule: Q04DX005 (ip), vehicle: saline): 95 % of control
- T/C (dose: 800.0 mg/kg/injection, schedule: Q04DX005 (ip), vehicle: saline): 151 % of control

Structure (SMILES): CCOC(=O)CNCc1cc(=O)[nH]c2cc(Cl)ccc12
- T/C [8]: 99 % of control
- T/C [9]: 99 % of control
- T/C [10]: 101 % of control
- T/C [17]: 99 % of control
- T/C [18]: 94 % of control

Structure (SMILES): C=C(C)[C@H]1Cc2c(ccc3c2O[C@@H]2COc4cc(OC)c(OC)cc4[C@@H]2C3=O)O1
- T/C (dose: 6.25 mg/kg/injection, schedule: Q04DX004 (ip), vehicle: saline with Tween-80): 98 % of control
- T/C (dose: 12.5 mg/kg/injection, schedule: Q04DX004 (ip), vehicle: saline with Tween-80): 95 % of control
- T/C [8]: 97 % of control

Structure (SMILES): O=C(Nc1cccc2ccccc12)C1C(=O)C(=O)N(c2cccc3ccccc23)C1=O (stereo not given)
- T/C (dose: 37.5 mg/kg/injection, schedule: Q04DX004 (ip), vehicle: Klucel (hydroxypropylcellulose) (HPC)): 105 % of control
- T/C (dose: 75.0 mg/kg/injection, schedule: Q04DX004 (ip), vehicle: Klucel (hydroxypropylcellulose) (HPC)): 104 % of control
- T/C (dose: 150.0 mg/kg/injection, schedule: Q04DX004 (ip), vehicle: Klucel (hydroxypropylcellulose) (HPC)): 88 % of control
- T/C (dose: 300.0 mg/kg/injection, schedule: Q04DX004 (ip), vehicle: Klucel (hydroxypropylcellulose) (HPC)): 91 % of control

Structure (SMILES): Cc1c2c(ccc3ccccc32)c[n+]2ccccc12
- T/C [15]: 97 % of control and 104 % of control and 109 % of control
- T/C [16]: 92 % of control and 97 % of control and 104 % of control
- T/C (dose: 6.0 mg/kg/injection, schedule: Q04DX004 (ip), vehicle: saline with Tween-80): 92 % of control and 107 % of control and 115 % of control
- T/C (dose: 12.0 mg/kg/injection, schedule: Q04DX004 (ip), vehicle: saline with Tween-80): 92 % of control

Structure (SMILES): CO[C@@H]1C2=CC=CC=C[C@H]2n2c(=O)n(C)c(=O)n21
- T/C (dose: 37.5 mg/kg/injection, schedule: Q04DX004 (ip), vehicle: other): 104 % of control
- T/C (dose: 75.0 mg/kg/injection, schedule: Q04DX004 (ip), vehicle: other): 100 % of control
- T/C (dose: 150.0 mg/kg/injection, schedule: Q04DX004 (ip), vehicle: other): 100 % of control
- T/C (dose: 300.0 mg/kg/injection, schedule: Q04DX004 (ip), vehicle: other): 104 % of control

Structure (SMILES): N#CC1C(=O)NC(=S)NC1c1ccc2c(c1)CCC2 (stereo not given)
- T/C [5]: 103 % of control
- T/C [6]: 97 % of control
- T/C [7]: 102 % of control

Structure (SMILES): O=C(Nc1ccc([N+](=O)[O-])cc1)C1C(=O)C(=O)N(c2ccc([N+](=O)[O-])cc2)C1=O (stereo not given)
- T/C (dose: 50.0 mg/kg/injection, schedule: Q04DX004 (ip), vehicle: Klucel + Tween-80): 96 % of control
- T/C (dose: 100.0 mg/kg/injection, schedule: Q04DX004 (ip), vehicle: Klucel + Tween-80): 104 % of control
- T/C (dose: 200.0 mg/kg/injection, schedule: Q04DX004 (ip), vehicle: Klucel + Tween-80): 92 % of control

Structure (SMILES): N#CC1C(=O)NC(=O)C(C#N)C1C(Cl)(Cl)Cl (stereo not given)
- T/C [12]: 94 % of control
- T/C [13]: 95 % of control

Structure (SMILES): O=C(O)Cc1cccc2c(=O)cc(-c3ccccc3)oc12
- T/C [1]: 98 % of control
- T/C [2]: 95 % of control
- T/C [3]: 102 % of control
- T/C (dose: 50.0 mg/kg/injection, schedule: Q04DX004 (ip), vehicle: suspension in saline): 100 % of control
- T/C (dose: 100.0 mg/kg/injection, schedule: Q04DX004 (ip), vehicle: suspension in saline): 102 % of control

Structure (SMILES): Nc1ccccc1N
- T/C (dose: 12.0 mg/kg/injection, schedule: Q04DX004 (ip), vehicle: Klucel (hydroxypropylcellulose) (HPC)): 99 % of control
- T/C [11]: 98 % of control
- T/C [12]: 110 % of control
- T/C [13]: 98 % of control
- T/C [14]: 103 % of control

Structure (SMILES): CO[C@@]12[C@@H]3N[C@@H]3CN1C1=C(C(=O)C(NCC3CCCO3)=C(C)C1=O)[C@@H]2COC(N)=O (stereo not given in full)
- T/C (dose: 1.5 mg/kg/injection, schedule: Q04DX004 (ip), vehicle: distilled water + Tween-80): 117 % of control
- T/C (dose: 3.0 mg/kg/injection, schedule: Q04DX004 (ip), vehicle: distilled water + Tween-80): 118 % of control
- T/C (dose: 12.0 mg/kg/injection, schedule: Q04DX004 (ip), vehicle: distilled water + Tween-80): 160 % of control
- T/C (dose: 24.0 mg/kg/injection, schedule: Q04DX004 (ip), vehicle: distilled water + Tween-80): 191 % of control
